Test [1] addresses T1, Recombinant Human NF-kappaB-Inducing Kinase (NIK/MAP3K14) (Homo sapiens, UniProt Q99558). The experiment in a line: Biological Assay A2: inhibition of auto-phosphorylation of recombinant human NIK/MAP3K14 (AlphaScreen). In kind it is biochemical. The following applies: auto-phosphorylation; averaged over all measurements on all batches; read-out: αscreen IC50. Put shortly: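 AlphaScreen readout of anti-phospho-IKK Ser176/180 signal after 1 h, 25° C. incubation of 0.2 nM GST-NIK with compound and 25 microM ATP (Tris pH 7.5 buffer, MgCl2, 1% DMSO final). IC50 from sigmoidal fit of blank-corrected % inhibition against Log10 concentration.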
On the technique in general: Bead proximity is the source of the signal in Alpha formats.

For the next test, the system named is L-363 cells. The experiment in a line: Biological Assay C: antiproliferative activity on L-363 cells (CellTiter-Glo). Format: cell-based, human. The following applies: Homo sapiens, L-363, 72 h, 72 hr treatment; averaged values. Put shortly: (§1)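 Luminescent ATP signal (CellTiter-Glo) measures growth of myeloma cells following a 72 h compound treatment. Values for the time-zero blank are subtracted, and each mean of duplicate wells is given as percentage of the no-drug control.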

For test [2], the system named is P-IKKα levels in L363 cells. The experiment in a line: Biological Assay B: effect of compounds on P-IKKα levels in L363 cells. Format: cell-based. The following applies: Homo sapiens, L-363, averaged values, read-out: IKKα Cellular IC50. In outline:
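L363 cells pre-incubated 24 h with 1 μg/ml stock BAFF, then treated 2 h with compounds (8-point, 1:3 dilutions, 1% DMSO) at 37° C; P-IKKα in lysates measured by sandwich immunoassay. Blank (10 μM ADS125117) subtracted; IC50 from sigmoidal fit of % inhibition of MG132/BAFF control.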

In test [3] the target is T1, Recombinant Human NF-kappaB-Inducing Kinase (NIK/MAP3K14). The experiment in a line: Biological Assay A: inhibition of recombinant human NIK/MAP3K14 activity (MBP phosphorylation, Mesoscale). Format: biochemical. The following applies: averaged over all measurements on all batches; read-out: Biochemical (MSD MBP) IC50. In outline:
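10 nM NIK with 25 μM ATP on MBP-coated plates in Tris pH 7.5 buffer with MgCl2, DTT and Na3VO4 and 1% DMSO, for 1 h at 25° C. Phospho-MBP was detected by anti-phospho-MBP and Sulfotag electrochemiluminescence; after blank subtraction, IC50 came from a sigmoidal fit of % inhibition.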

The test system of another test is JJN-3 cells. The experiment in a line: Biological Assay C: antiproliferative activity on JJN-3 cells (CellTiter-Glo). The following applies: Homo sapiens, JJN-3, 72 h, 72 hr treatment; averaged values. In kind it is cell-based, human. In outline:
as §1
A general note: Cellular ATP, detected with luciferase, serves as a proxy for viable cell number.

The test system of the next test is LP-1 cells. The experiment in a line: Biological Assay C: antiproliferative activity on LP-1 cells (CellTiter-Glo). Format: cell-based, human. The following applies: Homo sapiens, LP-1, 72 h, 72 hr treatment; averaged values. In outline:
as §1

The record followed here is patent publication US9643964B2, “3-(2-aminopyrimidin-4-yl)-5-(3-hydroxypropynyl)-1H-pyrrolo[2,3-C]pyridine derivatives as NIK inhibitors for the treatment of cancer” (Janssen Pharmaceutica NV, priority 2013, dated 2017).

Some results are limits rather than exact numbers.

T1 sequence (Q99558 whole entry): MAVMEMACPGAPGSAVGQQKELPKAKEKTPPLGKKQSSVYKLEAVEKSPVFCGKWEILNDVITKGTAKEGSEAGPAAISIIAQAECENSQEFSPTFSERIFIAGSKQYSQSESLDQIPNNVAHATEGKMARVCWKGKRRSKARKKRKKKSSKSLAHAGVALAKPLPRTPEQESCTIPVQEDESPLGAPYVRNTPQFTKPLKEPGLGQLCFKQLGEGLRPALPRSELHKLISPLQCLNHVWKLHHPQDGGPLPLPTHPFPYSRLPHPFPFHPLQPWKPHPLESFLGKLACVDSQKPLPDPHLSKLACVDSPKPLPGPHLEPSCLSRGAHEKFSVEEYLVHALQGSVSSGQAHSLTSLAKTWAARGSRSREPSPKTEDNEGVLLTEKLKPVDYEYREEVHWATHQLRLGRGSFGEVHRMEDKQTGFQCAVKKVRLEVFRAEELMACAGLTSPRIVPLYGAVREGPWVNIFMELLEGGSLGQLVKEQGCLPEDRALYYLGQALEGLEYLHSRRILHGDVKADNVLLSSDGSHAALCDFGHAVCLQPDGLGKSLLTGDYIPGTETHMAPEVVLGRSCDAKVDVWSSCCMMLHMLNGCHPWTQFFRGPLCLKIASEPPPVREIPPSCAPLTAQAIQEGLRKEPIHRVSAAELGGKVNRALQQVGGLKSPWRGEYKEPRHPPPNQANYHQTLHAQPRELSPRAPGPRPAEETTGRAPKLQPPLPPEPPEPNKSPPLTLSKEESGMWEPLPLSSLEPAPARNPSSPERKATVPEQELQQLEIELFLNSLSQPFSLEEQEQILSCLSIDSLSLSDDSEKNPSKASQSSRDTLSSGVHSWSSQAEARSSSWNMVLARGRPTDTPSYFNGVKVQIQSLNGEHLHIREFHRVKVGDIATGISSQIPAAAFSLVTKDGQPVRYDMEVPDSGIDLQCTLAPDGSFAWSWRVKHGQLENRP

The IC50 is the concentration needed to halve the response being measured. By EC50 is commonly meant the concentration needed to bring the measured effect to its halfway point. Low values mean greater potency, high ones weaker potency. Consider `CC(C)n1cc(-c2ccnc(N)n2)c2cc(C#CC3(O)CCCC3)ncc21` [Compound 18], for which the IC50 stood at 8 nM in test [1], 47 nM in test [2] and 3.7 nM in test [3]. Also, the concentration giving a half-maximal response (EC50) in the test with L-363 cells was determined as 450 nM; in the test with JJN-3 cells it was 340 nM; in the test on LP-1 cells it was 1500 nM.
Regarding `CCC(C)(O)C#Cc1cc2c(-c3ccnc(N)n3)cn(CC(C)(C)O)c2cn1` (stereo not drawn) [Compound 43], the IC50 in test [1] is 38 nM; in test [2], 280 nM; in test [3], 29 nM. Besides, the concentration giving a half-maximal response (EC50) is 4100 nM in the test with L-363 cells, 650 nM in the test with JJN-3 cells and above 10000 nM in the test with LP-1 cells.
With `CC(C)(O)C#Cc1cc2c(-c3ccnc(N)n3)cn(C(C)(C)CO)c2cn1` [Compound 66], the half-inhibitory concentration (IC50) was found to be 52 nM in test [1], 240 nM in test [2] and 5.8 nM in test [3]. Further, the results for the EC50 in the test on L-363 cells, in the test with JJN-3 cells and in the test with LP-1 cells were 270 nM, 250 nM and 7600 nM, respectively.
As to `COCCNC(=O)c1[nH]c2cnc(C#CC(C)(C)O)cc2c1-c1ccnc(N)n1` [Compound 52], the results for the IC50 in test [1], in test [2] and in test [3] were 33 nM, 99 nM and 29 nM, respectively. The figures for the EC50 with L-363 cells, in the test with JJN-3 cells and in the test on LP-1 cells were 3200 nM, 1200 nM and 30000 nM, respectively.
In the case of `CC(C)(O)Cn1cc(-c2ccnc(N)n2)c2cc(C#CC(C)(O)CC3CC3)ncc21` (stereo not drawn) [Compound 53], the concentration for half-maximal inhibition (IC50) in test [1] was found to be 57 nM; in test [2], 370 nM; in test [3], 45 nM. Besides, the EC50 in the test on L-363 cells is above 10000 nM; in the test with JJN-3 cells it was 450 nM; in the test on LP-1 cells, above 10000 nM.
`Nc1nccc(-c2c[nH]c3cnc(C#CC4(O)CC4)cc23)n1` [Compound 9]: the IC50 in test [1] was found to be 2 nM; in test [2], 37 nM; in test [3], 1.1 nM. The concentration giving a half-maximal response (EC50) in the test with L-363 cells amounted to 120 nM; in the test with JJN-3 cells, 74 nM; with LP-1 cells, 1200 nM.
For `CC(C)(O)C#Cc1cc2c(-c3ccnc(N)n3)cn(CC#N)c2cn1` [Compound 56], the IC50 in test [1] was 18 nM; in test [2], 140 nM; in test [3] it was 25 nM. In addition, the figures for the EC50 with L-363 cells, with JJN-3 cells and in the test on LP-1 cells were 840 nM, 840 nM and 14000 nM, respectively.
Consider `CC(C)(O)C#Cc1cc2c(-c3nc(N)ncc3F)cn(CC(C)(C)O)c2cn1` [Compound 64], for which the concentration for half-maximal inhibition (IC50) came to 29 nM in test [1], 20 nM in test [2] and 5.2 nM in test [3]. Moreover, the values for the concentration giving a half-maximal response (EC50) with L-363 cells, in the test with JJN-3 cells and with LP-1 cells were 51 nM, 81 nM and 2000 nM, respectively.
For `CC(C)(O)C#Cc1cc2c(-c3nc(N)ncc3Cl)cn(CCO)c2cn1` [Compound 8], the concentration for half-maximal inhibition (IC50) in test [1] came to 1 nM; in test [2], 8 nM; in test [3], 3.3 nM. In addition, the values for the EC50 in the test with L-363 cells, with JJN-3 cells and with LP-1 cells were 250 nM, 94 nM and 2700 nM, respectively.
Turning to `CC(C)(O)Cn1cc(-c2nc(N)ncc2Cl)c2cc(C#CC(C)(O)c3nccs3)ncc21` (stereo not drawn) [Compound 23], the half-maximal inhibitory concentration (IC50) came out at 9 nM in test [1], 89 nM in test [2] and 30 nM in test [3]. Also, the EC50 in the test with L-363 cells came out at 9900 nM; in the test with JJN-3 cells it was 2500 nM; with LP-1 cells, 7700 nM.
As to `COCCn1cc(-c2nc(N)ncc2F)c2cc(C#CC(C)(C)O)ncc21` [Compound 54], the IC50 worked out at 17 nM in test [1], 21 nM in test [2] and 27 nM in test [3]. Further, the half-maximal effective concentration (EC50) with L-363 cells stood at 59 nM; with JJN-3 cells it was 89 nM; in the test with LP-1 cells, 330 nM.
For the molecule `CC(C)(O)C#Cc1cc2c(-c3ccnc(N)n3)cn(C3COC3)c2cn1` [Compound 65], the half-maximal inhibitory concentration (IC50) in test [1] is 54 nM; in test [2] it was 140 nM; in test [3], 15 nM. Besides, the 50% effective concentration (EC50) with L-363 cells worked out at 400 nM; in the test with JJN-3 cells, 470 nM; in the test with LP-1 cells, 7000 nM.
For the molecule `CC(C)(O)Cn1cc(-c2ccnc(N)n2)c2cc(C#CC3(O)CCC3)ncc21` [Compound 42], the 50% inhibitory concentration (IC50) in test [1] turned out to be 24 nM; in test [2], 84 nM; in test [3], 5.7 nM. For the same molecule, the concentration for a half-maximal effect (EC50) in the test with L-363 cells stood at 1500 nM; in the test with JJN-3 cells, 330 nM; with LP-1 cells, 16000 nM.
As for `CC(C)(O)Cn1cc(-c2ccnc(N)n2)c2cc(C#CC(C)(O)c3ccccc3)ncc21` (stereo not drawn) [Compound 36], the IC50 in test [1] was 86 nM; in test [2] it was 900 nM; in test [3] it was 17 nM. Further, the EC50 in the test with L-363 cells came out at 7900 nM; in the test with JJN-3 cells, 1700 nM; with LP-1 cells, 12000 nM.
